Here are results for 33 compounds from PubChem BioAssay AID720512 (Broad Institute, 2013).

By AC50 is commonly meant the concentration at which the activity in the assay is half-maximal.

Calls of active or inactive are those of the source. The rule behind the calls is not given here.

One experiment addresses Toxin B (TcdB) glycohydrolase, Clostridioides difficile 630. Nature of the experiment: TcdB glycohydrolase inhibitors, dose response, biochemical, cherry-pick, plate reader (AID 720512). Conditions: recombinant TcdB glycohydrolase activity.
In the case of `CC(C)NC(=O)N1CC[C@@H]2[C@H]1c1cc(-c3ccccc3)ccc1N(C)[C@H]2CO`, the AC50 is > 39 µM (inactive).
On to `Nc1ncc(S(=O)(=O)c2ccc([N+](=O)[O-])cc2)s1`, for which the AC50 is > 39 µM (inactive).

Still in this experiment, the particulars now being: recombinant TcdB glycohydrolase activity, at 19.5 µM (top of the series).
On to `Cn1c(=O)[nH]c(=O)c2c1[nH]c(=S)n2Cc1ccc(Cl)cc1`, for which the “activity change, negative = inhibition” value was “inactive”.
The same measure, in the same setting: then `COC(=O)C(Cc1ccccc1)NC(=O)CSc1nc(C)cc(=O)[nH]1` (stereo not drawn), with “inactive”; and `COCCN(C(=O)C(C)C)c1nnc(-c2ccc(C(C)(C)C)cc2)s1`, with “inactive”; and `CCc1cc(/C(Cc2ccccn2)=N\O)c(O)cc1O`, with “inactive”.
For `O=C1CCCC2=C1Sc1ccccc1N2`, the “activity change, negative = inhibition” value is “inactive”.
Still for that read-out and setting: then `S=C(c1cn(Cc2ccccc2)c2ccccc12)N1CCOCC1`, with “inactive”.
Take `COc1ccc(C2=NS(=O)(=O)N(C)C(C(=O)N(C)Cc3ccccc3)=C2)cc1`: the “activity change, negative = inhibition” value is “inactive”.
In the case of `CNC(=O)C1CCN(S(=O)(=O)c2c(C)noc2/C=C/c2cccc(OC)c2)CC1`, the “activity change, negative = inhibition” value is “inactive”.
On the same count and under the same terms, the result for `COc1ccccc1-n1c(SCC(=O)O)nc2c(sc(=S)n2-c2ccc(Cl)c(C)c2)c1=O` reads “inactive”; that for `Cc1ccc(S(=O)(=O)N2CCOCC2)cc1C(=O)NCCCN1CCCC1=O`, “inactive”.
Same read-out and setting: then `C/C(=N\OCC(=O)Nc1nc2ccccc2s1)c1ccccc1`, with “inactive”; and `O=c1oc(-c2ccc(Br)cc2)nc2ccccc12`, with “inactive”.
Still for that read-out and setting: then `COc1ccccc1C(=O)Nc1cccc(Oc2c(F)c(F)c(F)c(F)c2F)c1`, with “inactive”; and `O=C(NCc1ccncc1)[C@@H]1CCCN1C(=O)[C@@H]1CCCN1`, with “inactive”.
For the compound `Fc1ccc(/C=C\c2nccc3c2[nH]c2ccccc23)cc1`, the “activity change, negative = inhibition” value was “inactive”.
The same measure, in the same setting: the result for `CCn1c(SCC(=O)OC)nnc1-c1ccccc1` reads “inactive”.
On the same count and under the same terms, then `COc1ccccc1-n1c(CCC(=O)O)ccc1-c1ccccc1`, with “inactive”.
Take `COc1ccc(NC(=O)CSc2nccn2C)cc1S(N)(=O)=O`: the “activity change, negative = inhibition” value is “inactive”.
Same read-out and setting: the result for `COc1ccc(CNCCc2ccc3c(c2)OCO3)cc1Br` reads “inactive”; that for `CCN1CCN(C(=O)C2=CC(c3ccc(OC)cc3)=NS(=O)(=O)N2C)CC1`, “inactive”; that for `COC(=O)CN1C(C)=Nc2ccc(Br)cc2C1c1ccccc1` (stereo not drawn), “inactive”.
Still for that read-out and setting: then `O=C(N/N=C/c1ccccn1)c1ccc([N+](=O)[O-])cc1Cl`, with “inactive”.
On the same count and under the same terms, the result for `O=[N+]([O-])c1cc(Br)ccc1NS(=O)(=O)c1ccccc1` reads “inactive”; that for `c1ccc(SCc2nc3ccccc3s2)nc1`, “inactive”; that for `C/C(=N\NC(=O)CSc1nc2ccccc2c(=O)n1-c1ccccc1C)c1cccs1`, “inactive”.
Regarding `CN(C)c1ccc(C(=O)OCC#CCSc2nnc(-c3cccc4ccccc34)o2)cc1`, the “activity change, negative = inhibition” value is “inactive”.
The same measure, in the same setting: the result for `COc1ccc(-c2ccc3c(c2)[C@H]2[C@H](CCN2C(=O)Cc2cccnc2)[C@@H](CO)N3C)cc1` reads “inactive”.
Still for that read-out and setting: the result for `CCCNC(=O)N1CC[C@@H]2[C@H]1c1cc(-c3ccccc3)ccc1N(C)[C@H]2CO` reads “inactive”; that for `CCCn1c(N)c(C(=O)COC(=O)c2cccc(S(=O)(=O)N3CCOCC3)c2)c(=O)[nH]c1=O`, “inactive”.
On the same count and under the same terms, the result for `CCOc1ccccc1/C=C/c1onc(C)c1S(=O)(=O)N1CCC(C(=O)N(CC)CC)CC1` reads “inactive”.
For `C/C(=N\NC(=O)c1ccccc1O)c1cccc(NC(=O)c2ccccc2)c1`, the “activity change, negative = inhibition” value was “inactive”.
